Assays:
Homo sapiens = organism: Homo sapiens; assay: Compound was evaluated for the inhibition of U-46,619 induced aggregation of human platelet rich plasma; type: functional
Thromboxane A2 receptor = target: T1, Thromboxane A2 receptor (Homo sapiens, UniProt P21731); assay: Compound was evaluated for the competitive binding of [3H]U-46619 to washed human platelets at the Thromboxane A2 receptor
T1 sequence (P21731 whole entry): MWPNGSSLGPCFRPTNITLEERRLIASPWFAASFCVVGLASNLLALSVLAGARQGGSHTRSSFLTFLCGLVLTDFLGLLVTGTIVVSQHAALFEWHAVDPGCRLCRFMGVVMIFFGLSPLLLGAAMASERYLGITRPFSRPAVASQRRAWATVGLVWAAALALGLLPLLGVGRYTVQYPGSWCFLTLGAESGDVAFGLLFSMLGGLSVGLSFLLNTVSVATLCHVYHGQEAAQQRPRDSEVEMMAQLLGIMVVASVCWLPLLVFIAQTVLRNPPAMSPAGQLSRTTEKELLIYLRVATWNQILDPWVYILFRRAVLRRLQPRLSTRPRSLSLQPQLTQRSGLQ

| IC50 (Homo sapiens) [µM] | IC50 (Thromboxane A2 receptor) [µM] | SMILES |
| --- | --- | --- |
| 22 | 25 | CCCCCCNC[C@H]1C2CC(CO2)[C@@H]1C/C=C\CCCC(=O)O (stereo partly drawn) |
| 7 | – | O=C(O)CCC/C=C\C[C@H]1C2COC(C2)[C@@H]1CNNC(=O)Nc1ccccc1 (stereo partly drawn) |

Source: ChEMBL document CHEMBL1126192, “PgH2 analogs as potential antiplatelet derivatives” (J Med Chem, 1992)
